Tests used:
[1] = tested on: PC9 cells (SM); assay: PC-9 growth inhibition assay (cell proliferation), Method B; assay type: cell-based, human; conditions: Homo sapiens, PC-9, 72 h, cellular proliferation, several runs
Experimental: (§1) Cell Proliferation Assays—Method B
(§2) Test compounds were dissolved in DMSO at 30 mM.
(§3) The final concentration was 1,000 cells/well. Add medium only as low control. […] 5% CO2 incubator for 72 hours.
(§4) After 72 hours incubation, remove the plates from incubator and equilibrate at room temperature for 15 minutes. Incubate the CellTiter Glo reagents (Promega, G9243) at 37° C. before the experiment. The buffer was equilibrated to room temperature and used to dissolve the substrate. To determine the cell viability, add 40 μL of CellTiter-Glo reagent into each well to be detected (at 1:1 to culture medium). Then the place the plates at room temperature for 30 min followed by read on EnSpire (PerkinElmer).
(§5) For estimation of IC50, the luminescence readout are transformed to % Inhibition by applying the following equation: The IC50 was then
(§6) [formula] calculated by fitting in XLFit to a four parameters logistic curve.
PC-9 Growth Inhibition Assay (Cell Proliferation).
The inhibition assay of PC-9 cells was conducted in the same manner as described above for H1975 cells.

[2] = tested on: H1975 cells (DM); assay: H1975 inhibition assay (cell proliferation), Method B; assay type: cell-based; conditions: Homo sapiens, NCI-H1975, 72 h, cellular proliferation, several runs
Experimental: as §1
H1975 Inhibition Assay (Cell Proliferation).
as §2, §3, §4, §5, §6

[3] = tested on: A431 cells (WT); assay: A431 inhibition assay (cell proliferation), Method B; assay type: cell-based, human; conditions: Homo sapiens, A-431, 72 h, cellular proliferation, several runs
Experimental: as §1
A431 Inhibition Assay, (Cell Proliferation).
The rest procedure was conducted in the same manner as described above for H1975 cells.

| Structure (SMILES) | IC50 [1] [nM] | IC50 [2] [nM] | IC50 [3] [nM] |
| --- | --- | --- | --- |
| C=CC(=O)Nc1cc(Nc2nccc(-c3c[nH]c4c(N(C)C)nccc34)n2)c(OC)cc1N(C)CCN(C)C [Example 50, N-(5-(4-(7-(Dimethylamino)-1H-pyrrolo[2,3-c]pyridin-3-yl)pyrimidin-2-ylamino)-2-(N-(2-(dimethylamino)ethyl)-N-methylamino)-4-methoxyphenyl) acrylamide] | 14.4 | 7.62 | 118 |
| C=CC(=O)Nc1cc(Nc2ncc(Cl)c(-n3nc(NC)c4ccccc43)n2)c(OC)cc1N(C)CCN(C)C [Example 52, N-(5-(5-Chloro-4-(3-(methylamino)-1H-indazol-1-yl)pyrimidin-2-ylamino)-2-(N-(2-(dimethylamino)ethyl)-N-methylamino)-4-methoxyphenyl) acrylamide] | 17.2 | 4.06 | 325 |
| C=CC(=O)Nc1cc(Nc2nccc(-n3nc(N4CCCC4)c4ccccc43)n2)c(OC)cc1N(C)CCN(C)C [Example 59, N-(5-(4-(3-(Pyrrolidin-1-yl)-1H-indazol-1-yl)pyrimidin-2-ylamino)-2-(N-(2-(dimethylamino)ethyl)-N-methylamino)-4-methoxyphenyl) acrylamide] | 19.7 | 8.45 | 716 |
| C=CC(=O)Nc1cc(Nc2nccc(-n3nc(N(C)CC)c4ccccc43)n2)c(OC)cc1N(C)CCN(C)C [Example 60, N-(5-(4-(3-(N-Ethyl-N-methylamino)-1H-indazol-1-yl)pyrimidin-2-ylamino)-2-(N-(2-(dimethylamino)ethyl)-N-methylamino)-4-methoxyphenyl) acrylamide] | 11.2 | 8.1 | 545 |
| C=CC(=O)Nc1cc(Nc2nccc(-n3cc(-c4c[nH]nn4)c4ccccc43)n2)c(OC)cc1N(C)CCN(C)C [Example 61, N-(5-(4-(3-(1H-1,2,3-Triazol-4-yl)-1H-indol-1-yl)pyrimidin-2-ylamino)-2-(N-(2-(dimethylamino)ethyl)-N-methylamino)-4-methoxyphenyl) acrylamide] | 29.5 | 94 | 1070 |
| C=CC(=O)Nc1cc(Nc2ncc(Cl)c(-c3cnc(NC)c(C(C)=O)c3)n2)c(OC)cc1N(C)CCN(C)C [Example 63] | 5.79 | 3.03 | 528 |
| C=CC(=O)Nc1cc(Nc2nccc(-c3ccc(C(N)=O)c4[nH]ccc34)n2)c(OC)cc1N(C)CCN(C)C [Example 64, 4-(2-(5-Acrylamido-4-((2-(dimethylamino)ethyl)(methyl)amino)-2-methoxyphenylamino)pyrimidin-4-yl)-1H-indole-7-carboxamide] | 5.65 | 7.96 | 426 |
| C=CC(=O)Nc1cc(Nc2nccc(-n3nc(NC4CCOC4)c4ccccc43)n2)c(OC)cc1N(C)CCN(C)C (stereo not drawn) [Example 65, N-(5-(4-(3-(Tetrahydrofuran-3-ylamino)-1H-indazol-1-yl)pyrimidin-2-ylamino)-2-(N-(2-(dimethylamino)ethyl)-N-methylamino)-4-methoxyphenyl) acrylamide] | 6.46 | 4.21 | 121 |
| C=CC(=O)Nc1cc(Nc2nccc(-n3nc(N(C)C)c4ccccc43)n2)c(OC)nc1N(C)CCN(C)C [Example 72, N-(5-((4-(3-(Dimethylamino)-1H-indazol-1-yl)pyrimidin-2-yl)amino)-2-((2-(dimethylamino)ethyl)(methyl)amino)-6-methoxypyridin-3-yl) acrylamide] | 5.88 | 8.55 | 912 |
| C=CC(=O)Nc1cc(Nc2nccc(-n3cc(-c4ccn[nH]4)c4ccccc43)n2)c(OC)cc1N(C)CCN(C)C [Example 74, N-(5-((4-(3-(1H-Pyrazol-3-yl)-1H-indol-1-yl)pyrimidin-2-yl)amino)-2-((2-(dimethylamino)ethyl)(methyl)amino)-4-methoxyphenyl) acrylamide] | 5.74 | 28 | 396 |
| C=CC(=O)Nc1cc(Nc2nccc(-n3cc(-c4cn[nH]c4)c4ccccc43)n2)c(OC)cc1N(C)CCN(C)C [Example 75, N-(5-((4-(3-(1H-Pyrazol-4-yl)-1H-indol-1-yl)pyrimidin-2-yl)amino)-2-((2-(dimethylamino)ethyl)(methyl)amino)-4-methoxyphenyl) acrylamide] | 27.9 | 89.5 | 439 |
| C=CC(=O)Nc1cc(Nc2nccc(-n3cc(-c4ccn[nH]4)c4ncccc43)n2)c(OC)cc1N(C)CCN(C)C [Example 76, N-(5-((4-(3-(1H-Pyrazol-5-yl)-1H-pyrrolo[3,2-b]pyridin-1-yl)pyrimidin-2-yl)amino)-2-((2-(dimethylamino)ethyl)(methyl)amino)-4-methoxyphenyl) acrylamide] | 3.33 | 2.27 | 152 |

Further lines, results first:

| IC50 [1] [nM] | IC50 [2] [nM] | IC50 [3] [nM] | Structure (SMILES) |
| --- | --- | --- | --- |
| 0.61 | 1.84 | 137 | C=CC(=O)Nc1cc(Nc2nccc(-n3cc(C(N)=O)c4ncccc43)n2)c(OC)cc1N(C)CCN(C)C [Example 49, 1-(2-(5-Acrylamido-4-((2-(dimethylamino)ethyl)(methyl)amino)-2-methoxyphenylamino)pyrimidin-4-yl)-1H-pyrrolo[3,2-b]pyridine-3-carboxamide] |
| 1.51 | 3.01 | 239 | C=CC(=O)Nc1cc(Nc2nccc(-n3cc(C(=O)NC)c4ncccc43)n2)c(OC)cc1N(C)CCN(C)C [Example 51, N-Methyl 1-(2-(5-acrylamido-4-((2-(dimethylamino)ethyl)(methyl)amino)-2-methoxyphenylamino)pyrimidin-4-yl)-1H-pyrrolo[3,2-b]pyridine-3-carboxamide] |
| 3.09 | 6.23 | 82.5 | C=CC(=O)Nc1cc(Nc2nccc(-n3nc(NC(C)=O)c4ccccc43)n2)c(OC)cc1N(C)CCN(C)C [Example 53, N-(5-(4-(3-Acetamido-1H-indazol-1-yl)pyrimidin-2-ylamino)-2-((2-(dimethylamino)ethyl)(methyl)amino)-4-methoxyphenyl) acrylamide] |
| 1.5 | 2.36 | 1.46 | C=CC(=O)Nc1cc(Nc2nccc(-n3nc(Nc4ccccn4)c4ccccc43)n2)c(OC)cc1N(C)CCN(C)C [Example 58, N-(5-(4-(3-(Pyridin-2-ylamino)-1H-indazol-1-yl)pyrimidin-2-ylamino)-2-(N-(2-(dimethylamino)ethyl)-N-methylamino)-4-methoxyphenyl) acrylamide] |
| 0.94 | 2.24 | 43.9 | C=CC(=O)Nc1cc(Nc2nccc(-n3cc(S(=O)(=O)NC)c4ccccc43)n2)c(OC)cc1N(C)CCN(C)C [Example 62] |
| 1.96 | 4.99 | 6.04 | C=CC(=O)Nc1cc(Nc2nccc(-n3nc(NCC4CC4)c4ccccc43)n2)c(OC)cc1N(C)CCN(C)C [Example 66, N-(5-(4-(3-(Cyclopropylmethylamino)-1H-indazol-1-yl)pyrimidin-2-ylamino)-2-((2-(dimethylamino)ethyl)(methyl)amino)-4-methoxyphenyl) acrylamide] |
| 2.37 | 0.86 | 264 | C=CC(=O)Nc1cc(Nc2nccc(-c3cc(C(N)=O)c4[nH]cc(C)c4c3)n2)c(OC)cc1N(C)CCN(C)C [Example 68, 5-(2-(5-Acrylamido-4-((2-(dimethylamino)ethyl)(methyl)amino)-2-methoxyphenylamino)pyrimidin-4-yl)-3-methyl-1H-indole-7-carboxamide] |
| 1.92 | 3.55 | 71.2 | C=CC(=O)Nc1cc(Nc2nccc(-n3nc(NC4CC4)c4ccccc43)n2)c(OC)cc1N(C)CCN(C)C [Example 69, N-(5-(4-(3-(cyclopropylamino)-1H-indazol-1-yl)pyrimidin-2-ylamino)-2-((2-(dimethylamino)ethyl)(methyl)amino)-4-methoxyphenyl) acrylamide] |
| 2.27 | 9.11 | 812 | C=CC(=O)Nc1cc(Nc2nccc(-n3nc(N(C)C)c4ccccc43)n2)c(OC(C)C)nc1N(C)CCN(C)C [Example 70, N-(5-((4-(3-(dimethylamino)-1H-indazol-1-yl)pyrimidin-2-yl)amino)-2-((2-(dimethylamino)ethyl)(methyl)amino)-6-isopropoxypyridin-3-yl) acrylamide] |
| 2.45 | 3.29 | 480 | C=CC(=O)Nc1cc(Nc2nccc(-n3nc(N(C)C)c4ccccc43)n2)c(OCC(F)F)nc1N(C)CCN(C)C [Example 71] |
| 3.28 | 12.6 | 426 | C=CC(=O)Nc1cc(Nc2ncc(Cl)c(-n3cc(C(C)=O)c4ccccc43)n2)c(OC)cc1N(C)CCN(C)C [Example 73, N-(5-(4-(3-Acetyl-1H-indol-1-yl)-5-chloropyrimidin-2-ylamino)-2-((2-(dimethylamino)ethyl)(methyl)amino)-4-methoxyphenyl) acrylamide] |
